Measured values taken from patent US7595398B2, “N-(5-membered aromatic ring)-amido anti-viral compounds” (SmithKline Beecham Corporation, priority 2005, dated 2009).

Test system: HCV replicon I389luc-ubi-neo/NS3-3′/ET in ET (Huh-lucubineo-ET) cells; screening for HCV RNA dependent RNA polymerase
Test: Replicon Assay (luciferase, ET cell line Huh-lucubineo-ET)
Type: cell-based
Settings: Hepatitis C virus; inhibition of replication relative to no compound control; test concentration of 10 μM according to the fitted equation; luciferase 48-72 hours
Procedure: A cell line, ET (Huh-lucubineo-ET) was used for screening of compounds of the present invention for HCV RNA dependent RNA polymerase. The ET cell line was stably transfected with RNA transcripts harboring a I389luc-ubi-neo/NS3-3′/ET; replicon with firefly luciferase-ubiquitin-neomycin phosphotransferase fusion protein and EMCV-IRES driven NS3-5B polyprotein containing the cell culture adaptive mutations (E1202G; T12801; K1846T) (Krieger at al, 2001 and unpublished). The ET cells were grown in DMEM, supplemented with 10% fetal calf serum, 2 mM Glutamine, Penicillin (100 IU/mL)/Streptomycin (100 μg/mL), 1× nonessential amino acids, and 250 μg/mL G418 (“Geneticin”). They were all available through Life Technologies (Bethesda, Md.). The cells were plated at 0.5-1.0×10^4 cells/well in the 96 well plates and incubated for 24 hrs before adding nucleoside analogs. […] Luciferase activity were measured 48-72 hours later by adding a lysis buffer and the substrate (Catalog number Glo-lysis buffer E2661 and Bright-Glo luciferase system E2620 Promega, Madison, Wis.). Cells should not be too confluent during the assay. Percent inhibition of replication was plotted relative to no compound control. Under the same condition, cytotoxicity of the compounds was determined using cell proliferation reagent, WST-1(Roche, Germany). The compounds showing antiviral activities, but no significant cytotoxicities were chosen to determine IC50 and TC50. For these determinations, 10 concentrations of each compound were used. Concentrations for test compounds typically span a range of 500 fold. IC50 and TC50 values were calculated by fitting % inhibition at each concentration (I) to the following equation: % inhibition=100%/[1+10^(log IC50−log (I))*b] where b is Hill's coefficient.

Row | Structure (SMILES) | inhibition at 10 µM [%]
1 | O=C(Nc1ncc(Cc2ccccc2Cl)s1)[C@@H]1CCCN1C(=O)OCc1ccccc1 [Compound 5052, 2-[5-(2-Chloro-benzyl)-thiazol-2-ylcarbamoyl]-pyrrolidine-1-carboxylic acid benzyl ester] | 1.2
2 | CC(=O)c1ccc(Cc2cnc(NC(=O)[C@@H]3CCCN3C(=O)OCc3ccccc3)s2)cc1 [Compound 5053, 2-[5-(4-Acetyl-benzyl)-thiazol-2-ylcarbamoyl]-pyrrolidine-1-carboxylic acid benzyl ester] | 4.55
3 | COc1ccc(-c2csc(NC(=O)[C@@H]3CCCN3C(=O)OCc3ccccc3)n2)cc1OC [Compound 5054, 2-[4-(3,4-Dimethoxy-phenyl)-thiazol-2-ylcarbamoyl]-pyrrolidine-1-carboxylic acid benzyl ester] | 99.3
4 | O=C(Nc1nc(-c2cccc3ccccc23)cs1)[C@@H]1CCCN1C(=O)OCc1ccccc1 [Compound 5055, 2-(4-Naphthalen-1-yl-thiazol-2-ylcarbamoyl)-pyrrolidine-1-carboxylic acid benzyl ester] | 99.3
5 | O=C(Nc1nc(-c2ccc(F)c(F)c2)cs1)[C@@H]1CCCN1C(=O)OCc1ccccc1 [Compound 5056, 2-[4-(3,4-Difluoro-phenyl)-thiazol-2-ylcarbamoyl]-pyrrolidine-1-carboxylic acid benzyl ester] | 99.3
6 | O=C(Nc1nc(-c2ccc3c(c2)Cc2ccccc2-3)cs1)[C@@H]1CCCN1C(=O)OCc1ccccc1 [Compound 5058, 2-[4-(9H-Fluoren-2-yl)-thiazol-2-ylcarbamoyl]-pyrrolidine-1-carboxylic acid benzyl ester] | 18.6
7 | O=C(Nc1nc(-c2c(F)cccc2F)cs1)[C@@H]1CCCN1C(=O)OCc1ccccc1 [Compound 5059, 2-[4-(2,6-Difluoro-phenyl)-thiazol-2-ylcarbamoyl]-pyrrolidine-1-carboxylic acid benzyl ester] | 88
8 | O=C(Nc1nc(-c2ccc3ccccc3c2)cs1)[C@@H]1CCCN1C(=O)OCc1ccccc1 [Compound 5060, 2-(4-Naphthalen-2-yl-thiazol-2-ylcarbamoyl)-pyrrolidine-1-carboxylic acid benzyl ester] | 98.4
9 | O=C(Nc1nc(CSc2nc(-c3ccc(F)cc3)cs2)cs1)[C@@H]1CCCN1C(=O)OCc1ccccc1 [Compound 5061, 2-{4-[4-(4-Fluoro-phenyl)-thiazol-2-ylsulfanylmethyl]-thiazol-2-ylcarbamoyl}-pyrrolidine-1-carboxylic acid benzyl ester] | 88.4
10 | Cc1cc(-c2csc(NC(=O)[C@@H]3CCCN3C(=O)OCc3ccccc3)n2)cc(C)c1C [Compound 5062, 2-[4-(3,4,5-Trimethyl-phenyl)-thiazol-2-ylcarbamoyl]-pyrrolidine-1-carboxylic acid benzyl ester] | 94.7
11 | O=C(Nc1ncc(Cc2ccc(Cl)cc2)s1)[C@@H]1CCCN1C(=O)OCc1ccccc1 [Compound 5063, 2-[5-(4-Chloro-benzyl)-thiazol-2-ylcarbamoyl]-pyrrolidine-1-carboxylic acid benzyl ester] | 51.7
12 | O=C(Nc1nc(CSc2nc3ccccc3[nH]2)cs1)[C@@H]1CCCN1C(=O)OCc1ccccc1 [Compound 5064, 2-[4-(1H-Benzoimidazol-2-ylsulfanylmethyl)-thiazol-2-ylcarbamoyl]-pyrrolidine-1-carboxylic acid benzyl ester] | 18.1
13 | O=C(Nc1cc(-c2ccccc2)nn1-c1ccccc1)[C@@H]1CCCN1C(=O)OCc1ccccc1 [Compound 5065, 2-(2,5-Diphenyl-2H-pyrazol-3-ylcarbamoyl)-pyrrolidine-1-carboxylic acid benzyl ester] | 27.2
14 | O=C(Nc1nc(-c2ccc(OCc3ccc(Br)cc3)cc2)cs1)[C@@H]1CCCN1C(=O)OCc1ccccc1 [Compound 5066, 2-{4-[4-(4-Bromo-benzyloxy)-phenyl]-thiazol-2-ylcarbamoyl}-pyrrolidine-1-carboxylic acid benzyl ester] | 5.72
15 | Cc1cccc(Cc2cnc(NC(=O)[C@@H]3CCCN3C(=O)OCc3ccccc3)s2)c1 [Compound 5067, 2-[5-(3-Methyl-benzyl)-thiazol-2-ylcarbamoyl]-pyrrolidine-1-carboxylic acid benzyl ester] | 23.9
16 | O=C(Cc1csc(NC(=O)[C@@H]2CCCN2C(=O)OCc2ccccc2)n1)NCCc1ccccc1 [Compound 5068, 2-[4-(Phenethylcarbamoyl-methyl)-thiazol-2-ylcarbamoyl]-pyrrolidine-1-carboxylic acid benzyl ester] | 13.5

Row | Structure (SMILES) | inhibition at 10 µM [%]
17 | CC(C)c1ccc(-c2csc(NC(=O)[C@@H]3CCCN3C(=O)OCc3ccccc3)n2)cc1 [Compound 5069, 2-[4-(4-Isopropyl-phenyl)-thiazol-2-ylcarbamoyl]-pyrrolidine-1-carboxylic acid benzyl ester] | 3.15
18 | CCCCC(=O)Nc1ccc(-c2csc(NC(=O)[C@@H]3CCCN3C(=O)OCc3ccccc3)n2)cc1 [Compound 5089, 2-[4-(4-Pentanoylamino-phenyl)-thiazol-2-ylcarbamoyl]-pyrrolidine-1-carboxylic acid benzyl ester] | 100
19 | COc1ccc(-c2csc(NC(=O)[C@@H]3CCCN3C(=O)OCc3ccccc3)n2)cc1Cl [Compound 5090, 2-[4-(3-Chloro-4-methoxy-phenyl)-thiazol-2-ylcarbamoyl]-pyrrolidine-1-carboxylic acid benzyl ester] | 99.8
20 | COc1ccc(-c2csc(NC(=O)[C@@H]3CCCN3C(=O)OCc3ccccc3)n2)cc1[N+](=O)[O-] [Compound 5091, 2-[4-(4-Methoxy-3-nitro-phenyl)-thiazol-2-ylcarbamoyl]-pyrrolidine-1-carboxylic acid benzyl ester] | 100
21 | CCNC(=O)c1ccc(-c2csc(NC(=O)[C@@H]3CCCN3C(=O)OCc3ccccc3)n2)cc1 [Compound 5092, 2-[4-(4-Ethylcarbamoyl-phenyl)-thiazol-2-ylcarbamoyl]-pyrrolidine-1-carboxylic acid benzyl ester] | 100
22 | O=C(CCCCC1SCC2NC(=O)NC21)Nc1ccc(-c2csc(NC(=O)[C@@H]3CCCN3C(=O)OCc3ccccc3)n2)cc1 (stereo partly shown) [Compound 5093, 2-(4-{4-[5-(2-Oxo-hexahydro-thieno[3,4-d]imidazol-4-yl)-pentanoylamino]-phenyl}-thiazol-2-ylcarbamoyl)-pyrrolidine-1-carboxylic acid benzyl ester] | 100
23 | CCc1ccc(-c2csc(NC(=O)[C@@H]3CCCN3C(=O)OCc3ccccc3)n2)cc1 [Compound 5094, 2-[4-(4-Ethyl-phenyl)-thiazol-2-ylcarbamoyl]-pyrrolidine-1-carboxylic acid benzyl ester] | 3.49
24 | O=C(NC1CC1)c1ccc(-c2csc(NC(=O)[C@@H]3CCCN3C(=O)OCc3ccccc3)n2)cc1 [Compound 5096, 2-[4-(4-Cyclopropylcarbamoyl-phenyl)-thiazol-2-ylcarbamoyl]-pyrrolidine-1-carboxylic acid benzyl ester] | 100
25 | O=C(Nc1nc(-c2ccc(Br)cc2)cs1)[C@@H]1CCCN1C(=O)OCc1ccccc1 [Compound 5097, 2-[4-(4-Bromo-phenyl)-thiazol-2-ylcarbamoyl]-pyrrolidine-1-carboxylic acid benzyl ester] | 43.3
26 | O=C(Nc1nc(-c2ccc(F)cc2)cs1)[C@@H]1CCCN1C(=O)OCc1ccccc1 [Compound 5098, 2-[4-(4-Fluoro-phenyl)-thiazol-2-ylcarbamoyl]-pyrrolidine-1-carboxylic acid benzyl ester] | 97.2
27 | CCCc1ccc(-c2csc(NC(=O)[C@@H]3CCCN3C(=O)OCc3ccccc3)n2)cc1 [Compound 5099, 2-[4-(4-Propyl-phenyl)-thiazol-2-ylcarbamoyl]-pyrrolidine-1-carboxylic acid benzyl ester] | 35.7
28 | O=C(NC1CCCC1)c1ccc(-c2csc(NC(=O)[C@@H]3CCCN3C(=O)OCc3ccccc3)n2)cc1 [Compound 5100, 2-[4-(4-Cyclopentylcarbamoyl-phenyl)-thiazol-2-ylcarbamoyl]-pyrrolidine-1-carboxylic acid benzyl ester] | 99.1
29 | O=C(Nc1nc(-c2ccc(Cl)cc2Cl)cs1)[C@@H]1CCCN1C(=O)OCc1ccccc1 [Compound 5101, 2-[4-(2,4-Dichloro-phenyl)-thiazol-2-ylcarbamoyl]-pyrrolidine-1-carboxylic acid benzyl ester] | 69.2
30 | CC(C)Cc1ccc(-c2csc(NC(=O)[C@@H]3CCCN3C(=O)OCc3ccccc3)n2)cc1 [Compound 5102, 2-[4-(4-Isobutyl-phenyl)-thiazol-2-ylcarbamoyl]-pyrrolidine-1-carboxylic acid benzyl ester] | 9.8
31 | O=C(Nc1nc(-c2ccccc2Cl)cs1)[C@@H]1CCCN1C(=O)OCc1ccccc1 [Compound 5103, 2-[4-(2-Chloro-phenyl)-thiazol-2-ylcarbamoyl]-pyrrolidine-1-carboxylic acid benzyl ester] | 99.3
